# Data published in US20110220154A1, “Dental Appliance Cleanser” (priority 2008, published 2011).
# Test system: Candida albicans
# Test: in vitro suspension test representing in-use conditions
# Format: cell-based
# Details: 5 min
# Procedure: The synergistic activity of the cleanser formulation was assessed using an in vitro suspension test representing in-use conditions. In-use conditions represent the actual consumer use of the cleanser (e.g., dissolved tablet concentrations, temperature, and contact time) versus Candida albicans as a relevant oral organism for the denture wearer. To 150 mL of 40° C. water at time zero, the denture cleanser was added, followed by 2 mL of a 10^8 cfu/mL test suspension. After 5 minutes, an aliquot of the solution was removed, neutralized and plated in order to evaluate the amount or log reduction of the test organism.
smiles,measurement,value
"[H]/N=C(\N/C(=N/[H])NCCCCCCNC(=N)NC(=N)Nc1ccc(Cl)cc1)Nc1ccc(Cl)cc1 [Test Formulation 4, 1,6-di-4′-chlorophenyldiguanidohexane]",antimicrobial activity,does not demonstrate any antimicrobial activity
